The values that follow come from article PMC9935382, “Sorting nexin-dependent therapeutic targeting of oncogenic epidermal growth factor receptor” (Cancer Gene Therapy, 2022).

For one assay, the system named is CHO cells. In words: MTT cell viability, CHO. It counts as cell-based, Chinese hamster. The conditions noted are these: CHO cells lack EGFR expression, 3 days. As to the method:
(§1) 2 × 10^3 cells were plated per well in a 96 well plate and left to adhere overnight. The following day, drug treatments were started and continued for 3 days. To measure the viability of the remaining cell population, 10% 3-(4,5-dimethylthiazol-2-yl)-2,5-diphenyltetrazolium (MTT) in media was added and incubated for 2 hours and conversion of MTT to formazan at 540 nm using a biotech Synergy LX plate reader.
(§2) A–G Cells were plated in a 96-well plate at 2000 cells per well. […] Cell viability was then measured with an MTT assay, viability of treated cells were compared with the vehicle control. H MDA-MB-468 cells were plated and incubated+/− IPTG for 2 days prior to drug treatment to induce expression of an EGFR-targeted shRNA.
Supplementary Figure 1. A. BT20 triple negative breast cancer cells were treated with SNX1.1, 1.2, or 1.3 for 3 days and their viability was measured via MTT analysis. B. CHO cells were treated with PTD4 or SNX1.3 for 3 days and their viability was measured via MTT analysis.

The next assay deals with MCF10A cells. In words: MTT cell viability, MCF10A. The following applies: immortalized breast epithelial line, 3 days. The class given is cell-based. The protocol: as §1, §2
Another assay relates to T47D cells. The following applies: previously characterized; no reference given; cited from earlier work.
Another assay has as its system MDA-MB-231 cells. The conditions noted are these: previously characterized; no reference given; cited from earlier work.
The target of assay [1] is EGFR kinase domain protein (EGFRkin), residues 672-998 with N-terminal His-tag (human). In words: MST; His-EGFRkin (50 nM) labelled through the His-tag with RED-tris-NTA 2nd Generation dye; SNX peptides or SNX-BAR protein titrated, 16 1:1 serial dilutions from 20 uM in PBS-T; room temperature; Monolith NT.115 pico.
In assay [2] the target is T1, EGFR kinase domain (residues 672–998) (Homo sapiens, UniProt P00533).
T1 construct: baculovirus insect cell expression system (residues 672–998 with N-terminal His-tag followed by TEV cleavage site); made in house; host or cells: Sf9 insect cells (Bac-to-Bac baculovirus, pFastBacHT)
Briefly: Microscale thermophoresis (MST) binding to EGFRkin. The conditions noted are these: MST, His-EGFRkin 50 nM (RED-tris-NTA dye) titrated with ligand, 16 1:1 serial dilutions from 20 μM, PBS-T, room temperature.
Procedure: Briefly pFastBacHT plasmid containing the cDNA of EGFR kinase domain with N-terminal His-tag was transformed into DH10Bac E. coli to generate bacmid DNA. P1 virus was generated by transfecting 2.0 mL of sf9 cells at 1.0 million cells/ml density with the purified bacmid DNA (200–3000 ng/μL). The P1 virus was harvested after 5–7 days following transfection. The P1 virus was diluted 100-fold into an sf9 cell culture at a density of 2.0 million cells/ml and cultured for 3 days. Supernatant containing the P2 virus was collected by centrifugation and diluted 40-fold into 1.0 L of sf9 cells at a density of 2.0 million cells/ml. After 2.5–3 days, cell pellets were harvested by centrifugation at 3500 x g at 4 °C for 20 min, and flash frozen in liquid nitrogen prior to storage at −80 °C.
To purify the EGFR kinase domain, Sf9 cell pellets (~10 g) was thawed on ice and homogenized with 2 passages on an EmulsiFlex-C5 (Avestin) in 50 mL of lysis buffer (50 mM Tris pH 7.5, 600 mM NaCl, 1 mM EDTA, 1 mM TCEP, protease inhibitors, DNAase, and 10% Glycerol). The lysate was centrifugated and supernatant was collected and loaded onto a 1.0 mL HisTrap FF column (GE) at a flow rate of 1.0 ml/min. Following loading, the column was washed with 20 column volumes of wash buffer (50 mM Tris pH 7.5, 600 mM NaCl, 20 mM Imidazole, 1 mM TCEP, and 10% Glycerol) and eluted with a linear gradient of elution buffers containing 20 and 300 mM imidazole. Fractions containing the EGFR kinase domain proteins were combined and concentrated to less than 1.0 mL. The concentrated proteins were loaded onto a Superdex 200 10/300 GL column (GE) equilibrated in buffer (20 mM Tris pH 7.5, 100 mM NaCl) for further purification. The purified proteins were concentrated, flash frozen in liquid nitrogen, and stored at −80 °C.
MST experiments were carried out using a Monolith NT.115 pico instrument (NanoTemper Technologies, Munich Germany). […] Kd values were derived from the concentration-dependent changes in normalized fluorescence (Fnorm). Data were analyzed using NanoTemper MO. […]

Entries after “also recorded” stand apart in the source; their conditions may differ.

For the molecule `CNC(=O)CN1CCC(Oc2cc3c(Nc4cccc(Cl)c4F)ncnc3cc2OC)CC1` [Sapitinib], the “impact on cell viability / growth” value in the assay with CHO cells was “more effective at inhibiting cell growth in immortalized cells than in cancer cells”; in the assay with MCF10A cells, “more effective at inhibiting cell growth in immortalized cells than in cancer cells; also recorded: significantly reduces viability of normal cells”. Regarding `C#Cc1cccc(Nc2ncnc3cc(OCCOC)c(OCCOC)cc23)c1` [erlotinib], the resistance to erlotinib entry in the assay on T47D cells and in the assay on MDA-MB-231 cells was “resistant” throughout.

“human SNX-BAR protein (SNX1 BAR domain, residues 301-522) (from UniProt Q13596 301-522) (domain or fragment)” came in with a Kd in assay [1] of 3 µM.

B1: BAR domain: human SNX1 BAR domain, residues 301–522, expressed in E. coli (protein)
chain: KMNESDIWFEEKLQEVECEEQRLRKLHAVVETLVNHRKELALNTAQFAKSLAMLGSSEDNTALSRALSQLAEVEEKIEQLHQEQANNDFFLLAELLSDYIRLLAIVRAAFDQRMKTWQRWQDAQATLQKKREAEARLLWANKPDKLQQAKDEILEWESRVTQYERDFERISTVVRKEVIRFEKEKSKDFKNHVIKYLETLLYSQQQLAKYWEAFLPEAKAIS
modifications: left off: MBP, N-terminal, cleaved
notes: human SNX1 BAR domain, residues 301–522, expressed in E. coli
B1: the figures for the Kd in assay [2] and in assay [2] (listed as SNX1 Bar) were 3 µM and 2.9 ± 1.7 µM, respectively.
